Results taken from US20210213104A1, “GLUCAGON AND GLP-1 CO-AGONISTS FOR THE TREATMENT OF CHRONIC KIDNEY DISEASE AND DIABETIC KIDNEY DISEASE IN TYPE 2 DIABETES” (MEDIMMUNE LIMITED, priority 2020, published 2021).
Marks after values point to notes of the source that are not given here.

System: subjects with T2DM and renal impairment
Test: Phase 2a: continuous glucose monitoring (CGM)
Assay type: in vivo, human
Conditions: for Percentage of Time CGM Glucose Within Target Range (70-180 mg/dL), Mean / Percentage of Time CGM Glucose Within Target Range (70-180 mg/dL), Median / Time in target range, Change from Baseline (Days −8 to −2), Mean / Time in target range, Change from Baseline (Days −8 to −2), Median / Time in target range, Difference in LS Mean Change (vs Placebo): 300 μg Dose (Days 26 to 32); for Percentage of Time CGM Glucose Within Target Range (70-180 mg/dL), Mean / Percentage of Time CGM Glucose Within Target Range (70-180 mg/dL), Median / Time in target range, Change from Baseline (Days −8 to −2), Mean / Time in target range, Change from Baseline (Days −8 to −2), Median / Time in target range, Difference in LS Mean Change (vs Placebo) / Percentage of time spent in CGM glucose range 70-180 mg/dL during treatment / Percentage of time spent in CGM glucose range >180 mg/dL during treatment: ITT; for Percentage of time spent in CGM glucose range 70-180 mg/dL during treatment / Percentage of time spent in CGM glucose range >180 mg/dL during treatment: entire dosing period
Method: Cotadutide was titrated from 50 μg up to 300 μg and administered once daily by subcutaneous (SC) injection over 32 days.
Cotadutide was administered at 50 μg once daily for 4 days, followed by 100 μg daily for 7 days, 200 μg daily for 7 days, and 300 μg daily for 14 days (n=20). Placebo was administered one daily for 32 days (n=20). Cotadutide and placebo were administered in the morning. Dosing commenced following predose baseline vital signs, blood tests (including HbA1c), an electrocardiogram (ECG), body weight measurement, and bioimpedance spectroscopy (BIS). Subjects then returned for daily dosing or remained overnight locally until Day 5, and thereafter, had visits at weekly intervals until a maintenance dose of 300 μg was established. Thus, Cotadutide or placebo was administered at the study site by study personal for the first four doses and on site on Days 5, 12, 19, and 32. At all other times, subjects preformed dosing at home.
A Freestyle Libre® Pro CGM device was used to measure interstitial glucose levels. […] Data generated by CGM was used at visits to adjust insulin doses and other treatments.
The CGM sensor, which is a small plastic circular device of 35 mm diameter and 5 mm depth, was applied to the back of the upper arm. Subjects wore the CGM sensor continuously up until the time of a sensor change, which was to occur within 14 days, and they were advised that they could bathe and shower, and swim in up to 3 m depth for up to 30 minutes while wearing the CGM sensor. When the CGM sensor was removed, a new CGM sensor could be reapplied, ideally close to the original site, but with the subject's site preference taken into account. CGM sensors were single-use only.
If a subject was unable to tolerate wearing the CGM sensor for the entire duration of the study, the sensor was removed; but the subject was to remain in the study with or without continued CGM and could instead be instructed to monitor capillary plasma glucose measurements four times per day (before meals and before bedtime) and record these levels in the diary provided.
Subjects underwent continuous glucose monitoring (CGM) starting from Day −14 to Day 40 (±5 days), with sensor changes within 14-day intervals. CGM readings were used to analyze change in average CGM glucose and glucose AUC7 d, coefficient of variation as a marker of glycemic variability, and time spent in target glucose range and hypoglycemia, to enable comparison across different dose levels.

## CCCCCCCCCCCCCCCC(=O)N[C@@H](CCC(=O)NCCCC[C@H](NC(=O)[C@H](CC(=O)O)NC(=O)[C@H](CO)NC(=O)[C@@H](NC(=O)[C@H](Cc1ccccc1)NC(=O)[C@@H](NC(=O)CNC(=O)[C@H](CCC(N)=O)NC(=O)[C@H](CO)NC(=O)[C@@H](N)Cc1c[nH]cn1)[C@@H](C)O)[C@@H](C)O)C(=O)N[C@@H](CO)C(=O)N[C@@H](CCC(=O)O)C(=O)N[C@@H](Cc1ccc(O)cc1)C(=O)N[C@@H](CC(C)C)C(=O)N[C@@H](CC(=O)O)C(=O)N[C@@H](CO)C(=O)N[C@@H](CCC(=O)O)C(=O)N[C@@H](CCCNC(=N)N)C(=O)N[C@@H](C)C(=O)N[C@@H](CCCNC(=N)N)C(=O)N[C@@H](CC(=O)O)C(=O)N[C@@H](Cc1ccccc1)C(=O)N[C@H](C(=O)N[C@@H](C)C(=O)N[C@@H](Cc1c[nH]c2ccccc12)C(=O)N[C@@H](CC(C)C)C(=O)N[C@@H](CCC(=O)O)C(=O)N[C@@H](C)C(=O)NCC(=O)NCC(=O)O)C(C)C)C(=O)O [Cotadutide]
Insulin Dose < 20 U/day
  Percentage of Time CGM Glucose Within Target Range (70-180 mg/dL), Mean: 89.31%
  Percentage of Time CGM Glucose Within Target Range (70-180 mg/dL), Median: 95.35%
  Time in target range, Change from Baseline (Days −8 to −2), Mean: 25.61%
  Time in target range, Change from Baseline (Days −8 to −2), Median: 23.18%
  Time in target range, Difference in LS Mean Change (vs Placebo): 56.7%
  Percentage of time spent in CGM glucose range 70-180 mg/dL during treatment: 89.85* %
  Percentage of time spent in CGM glucose range >180 mg/dL during treatment: 3.31%
Insulin Dose < 20 U/day, listed as MEDI0382
  Time in target range, Difference in LS Mean Change (vs Placebo): 56.73%
Insulin Dose ≥ 20 U/day
  Percentage of Time CGM Glucose Within Target Range (70-180 mg/dL), Mean: 71.69%
  Percentage of Time CGM Glucose Within Target Range (70-180 mg/dL), Median: 83.04%
  Time in target range, Change from Baseline (Days −8 to −2), Mean: 8.44%
  Time in target range, Change from Baseline (Days −8 to −2), Median: 13.31%
  Time in target range, Difference in LS Mean Change (vs Placebo): 19.6%
  Percentage of time spent in CGM glucose range 70-180 mg/dL during treatment: 73.09* %
  Percentage of time spent in CGM glucose range >180 mg/dL during treatment: 14.09* %
Insulin Dose ≥ 20 U/day, listed as MEDI0382
  Time in target range, Difference in LS Mean Change (vs Placebo): 19.59%
Total
  Percentage of Time CGM Glucose Within Target Range (70-180 mg/dL), Mean: 78.18%
  Percentage of Time CGM Glucose Within Target Range (70-180 mg/dL), Median: 83.51%
  Time in target range, Change from Baseline (Days −8 to −2), Mean: 14.50%
  Time in target range, Change from Baseline (Days −8 to −2), Median: 18.31%
  Time in target range, Difference in LS Mean Change (vs Placebo): 36.02%
  Percentage of time spent in CGM glucose range 70-180 mg/dL during treatment: 78.67%
  Percentage of time spent in CGM glucose range >180 mg/dL during treatment: 10.50%
300 μg [Days 19 to 25], all subjects
  Time in target range, difference in LS mean change as compared to placebo: 35.23%
At the 50 μg dose
  mean CGM glucose value: 133.7 mg/dL
At the 100 μg dose
  mean CGM glucose value: 127.6 mg/dL
At the 200 μg dose
  mean CGM glucose value: 131.7 mg/dL
At the 300 μg dose (Days 26 to 32)
  mean CGM glucose value: 125.4 mg/dL
Based on LS mean change
  Total glucose over each dosing period (AUC7 d) from baseline (Days −8 to −2) as compared to placebo: significantly decreased
Baseline to the end of each 7-day dosing period
  LS mean change in coefficient of variation of glucose vs placebo: no statistically significant difference
Total, listed as MEDI0382
  Percentage of time spent in CGM glucose range 70-180 mg/dL during treatment: 78.67* %
  Percentage of time spent in CGM glucose range >180 mg/dL during treatment: 10.50* %
In vivo
  percentage of time spent below 54 mg/dL vs Placebo: statistically significant greater percentage of time
  percentage of time spent below 54 mg/dL vs placebo: no clinically significant difference vs placebo
  time spent in hypoglycemia (<70 mg/dL) vs placebo, 7-day periods: no statistically significant differences
P ≤0.003, based on LS mean change
  Average glucose levels from baseline to the end of each 7-day dosing period compared to placebo: significant reductions
